From patent publication US8697637B2, “Antimicrobial peptides of the cecropin family and therapeutic uses thereof” (Institut de Recherche pour le Developpement (IRD), priority 2010, dated 2014)
≈ marks a conversion by molar mass, not a printed value. Where a SMILES comes first, the peptide text is derived from it.

Tests used:
Format in all cases: cell-based
[1] = system: Escherichia coli (Gram negative); settings: E. coli, LB medium, 37° C., 24 hours, complete inhibition of growth
Protocol: (§1) The bacteria Escherichia coli (Gram negative) and Micrococcus luteus (Gram positive) are cultivated in an LB (Luria-Bertani) culture medium with and without the peptides GK36 and MK61 to be tested. The bacterial growth is checked after incubation for one night at 37° C. by measuring the change in the absorbance value at 600 nanometres (A600) with the aid of a microplate spectrophotometer. The peptides MK61 and GK36 are incubated for 24 hours with the Gram negative and Gram positive bacteria. The minimum inhibitory concentration (MIC) of the synthetic peptides GK36 and MK61 represents the lowest peptide concentration that is sufficient to inhibit bacterial growth completely.
(§2) The results obtained are shown in FIG. 1 for the bacterium Escherichia coli (Gram negative) and in FIG. 2 for the bacterium Micrococcus luteus (Gram positive).

[2] = system: dengue virus serotype 2 "DENV-2"; assay: Inhibition of the infection of dendritic cells by the dengue virus (real-time PCR); settings: peptide at 2.5 μg/ml, DENV-2 MOI 0.4, 48 hours
Protocol: The dendritic cells are incubated for 3 hours at 37° C. in the presence of the dengue virus (they are infected at an “MOI” (“multiplicity of infection”) of 0.4) with and without the peptides MK61 and GK36 to be tested, which are prepared at concentrations of 2.5 μg/ml and 12 μg/ml for MK61 and 2.5 μg/ml for GK36. The supernatant is then withdrawn and the cells are or are not brought into contact with peptide for 48 hours.
Real-time PCR analyses are then carried out. The cell viability is evaluated by flow cytometry, and no cell toxicity is observed.

CHIKV-147-2 GFP virus = assay: Inhibition of the infection of HEK-293T cells by chikungunya virus (GFP, flow cytometry); settings: MOI 1, peptide at 10, 50 and 80 μg/ml, 48 hours
Protocol: The cells, which come from the human cell line HEK-293T (human embryonic kidney 293), are incubated for 2 hours at 37° C. in the presence of CHIKV-147-2 GFP virus (they are infected at an “MOI” of 1) with and without the peptides GK36 and MK61 to be tested, which are each prepared at concentrations of 10 μg/ml, 50 μg/ml and 80 μg/ml. The supernatant is then withdrawn and the cells are or are not brought into contact with peptides for 48 hours. The percentage of cells infected corresponds to the percentage of GFP (“green fluorescent protein”) cells visualised by flow cytometry (10,000 cells were counted per condition).

parasite = assay: Antiparasitic activity (general statement); settings: general statement in the description
DENV-1 = assay: Inhibition of the infection of C6/36 cells by the dengue virus (RT-PCR); settings: C6/36 cells of Aedes albopictus, 5 or 10 μg/ml, 12 or 24 hours, RT-PCR bands
Protocol: (§3) The C6/36 cells of Aedes albopictus mosquitoes are incubated for one hour at 4° C. with the various dengue viruses ((serotype 1) “DENV-1” or (serotype 2) “DENV-2” or (serotype 3) “DENV-3” or (serotype 4) “DENV-4”) (with “PFUs” (“plaque forming units”) of 1). The cells are then washed three times and incubated for 12 hours or 24 hours at 28° C. in the presence or absence of the peptides GK36 and MK61 to be tested, which are each prepared at concentrations of 5 μg/ml or 10 μg/ml.
(§4) RT-PCR analyses are then carried out on the cell pellets in order to detect the presence of the dengue virus.

DENV-4 = assay: as above; settings: C6/36 cells of Aedes albopictus, 5 or 10 μg/ml, 12 or 24 hours, RT-PCR bands
Protocol: as §3, §4

DENV-3 = assay: as above; settings: C6/36 cells of Aedes albopictus, 5 or 10 μg/ml, 12 or 24 hours, RT-PCR bands
Protocol: as §3, §4

DENV-2 = assay: as above; settings: C6/36 cells of Aedes albopictus, 5 or 10 μg/ml, 12 or 24 hours, RT-PCR bands
Protocol: as §3, §4

[3] = system: Micrococcus luteus (Gram positive); assay: Antibacterial test, bacterial growth in LB medium (A600), MIC; settings: 37° C., 24 hours, complete inhibition of growth
Protocol: as §1, §2

CC[C@H](C)[C@H](NC(=O)CNC(=O)[C@@H](NC(=O)[C@@H](NC(=O)[C@@H](NC(=O)[C@@H]1CCCN1C(=O)[C@H](CC(C)C)NC(=O)[C@H](C)NC(=O)[C@H](CCCCN)NC(=O)[C@H](CCC(=O)O)NC(=O)[C@H](CO)NC(=O)[C@H](C)NC(=O)[C@H](CCCCN)NC(=O)[C@H](Cc1ccccc1)NC(=O)[C@@H](NC(=O)[C@H](CCCNC(=N)N)NC(=O)[C@H](CCCCN)NC(=O)CNC(=O)[C@H](C)NC(=O)CNC(=O)[C@H](CCC(=O)O)NC(=O)[C@H](CC(C)C)NC(=O)[C@H](CCCCN)NC(=O)[C@H](CCCCN)NC(=O)CNC(=O)[C@H](CC(C)C)NC(=O)[C@H](CCCCN)NC(=O)[C@H](CCCCN)NC(=O)[C@H](CC(C)C)NC(=O)CNC(=O)CN)C(C)C)C(C)C)C(C)C)C(C)C)C(=O)N[C@@H](CCCCN)C(=O)N[C@@H](C)C(=O)N[C@H](C(=O)NCC(=O)N[C@@H](CCCCN)C(=O)O)[C@@H](C)CC [GK36] (H-GGLKKLGKKLEGAGKRVFKASEKALPVVVGIKAIGK-OH; N-terminus and C-terminus assumed)
minimum inhibitory concentration (MIC) [1]: 0.6 µM (≈ 2.21 µg/mL)
inhibition of the infection of the dendritic cells [2]: 35%
inhibition of the infection of HEK-293T cells (CHIKV-147-2 GFP virus): inhibits the infection of the HEK-293T cells
antiparasitic activity (parasite): does not exhibit antiparasitic activity
inhibition of the infection of C6/36 cells by dengue-1 virus (DENV-1): inhibit the infection
inhibition of the infection of C6/36 cells by dengue-4 virus (DENV-4): inhibit the infection
inhibition of the infection of C6/36 cells by dengue-3 virus (DENV-3): inhibit the infection
inhibition of the infection of C6/36 cells by dengue-2 virus (DENV-2): inhibit the infection
minimum inhibitory concentration (MIC) [3]: 10 µM (≈ 36.8 µg/mL)
